Article PMC12736313, “Curcumin and Resveratrol vs. Ferrocene-Modified Polyphenols: Role in Enhancing Protective Properties in Human Keratinocytes” (Pharmaceutics, 2025)
“Also recorded” adds a separate entry of the source.

Experiments:
HaCaT cells [1] = test: Cell viability by MTT assay; format: cell-based, human; conditions: 48 h; for IC20 / IC50 / IC80: MTT method
Method: (§1) The adherent HaCaT cell line was obtained from Cytion, Eppelheim, Germany. The HaCaT cell line was routinely grown in Dulbecco’s Modified Eagle Medium supplemented with 10% (v/v) fetal bovine serum (atmosphere of 95% air and 5% CO2 at 37 °C), obtained from Sigma-Aldrich Co., St. Louis, MO, USA. No antibiotics were used throughout the experiments. Cells were harvested with trypsin/EDTA solution (Sigma-Aldrich Co.) after reaching >70% confluence, diluted to the required density, and seeded in multiwell plates (Nunc, Roskilde, Denmark), depending on the experiments performed.
(§2) The cytotoxicity endpoints were determined by MTT (3-(4,5-dimethyl-2-thiazolyl)-2,5-diphenyl-2H-tetrazolium bromide) assay and Trypan blue method. For the MTT assay, cells were seeded in 96-well transparent flat-bottomed polystyrene plates at an initial concentration of 2.5 × 10^5 cells mL^−1 (100 μL/well) in growth medium supplemented with RSV, RF, CRC, and CF at concentrations of 5–100 μM. Concentrations were chosen based on our previously conducted research—reported cytotoxicity thresholds in HaCaT and other cell lines. RF and CF were synthesized in the Laboratory for Organic Chemistry at the University of Zagreb Faculty of Food Technology and Biotechnology, Zagreb, Croatia, while RSV and CRC were purchased from Sigma-Aldrich. After 48 h of incubation at 37 °C, cell viability was determined using the MTT assay. The absorbance was measured at 540 nm (Cary Eclipse spectrofluorimeter, Varian, Palo Alto, CA, USA). For the Trypan blue method, the cells were seeded in 6-well plates at an initial concentration of 2 × 10^4 cells mL^−1 (4 mL/well). After overnight incubation at 37 °C, the cells were treated with RSV, RF, CRC, and CF at different concentrations (5–100 μM). Cell viability was determined 48 h after treatment using the Trypan blue method. The stock solution of RSV was prepared in EtOH, while CRC and ferrocenyl analogues require DMSO due to higher lipophilicity. All stock solutions were stored at −20 °C until use. […] Cell viability is expressed as the percentage of treated cells compared to control cells. For each concentration tested, 3–15 independent biological samples were analyzed.

HaCaT cells [2] = test: Intracellular ROS (DCFDA), UV-C-induced or endogenous; format: cell-based, human
Method: (§3) Two approaches were used for intracellular ROS induction. The first approach involved pretreatment of HaCaT cells with RSV, RF, CRC, and CF and, after overnight incubation, treatment with 50 μM tBHP (tert-butyl hydroperoxide). The second approach included pretreatment of the cells with CRC and CF, and after overnight incubation, exposure of the cells to UV (ultraviolet)-C light (15 W; 55 V; 254 nm; PURITEC HNS Linear Lamps, HNS 15 W G13, Osram GmbH, Munich, Germany) for 3 h. In brief, HaCaT cells were seeded at a concentration of 2.5 × 10^5 cells mL^−1 in black 96-well plates (100 µL/well) in growth medium and supplemented with RSV, RF, CRC, and CF at concentrations 2.5–50 μM. The DCFDA/H2DCFDA (2′,7′-dichlorofluorescin diacetate/2′,7′-dichlorodihydrofluorescein diacetate) assay was performed according to the manufacturer’s protocol with minor modifications (Cellular ROS Assay Kit Cat. No. ab113851, Abcam, Cambridge, UK). The intracellular ROS level was determined by measuring the fluorescence intensity (λex/em = 485/535 nm; Cary Eclipse spectrofluorimeter). Cells treated with the same volume of DMSO or EtOH in which RSV, RF, CRC, and CF were dissolved, and cells treated with 50 µM tBHP served as controls. In UV experiments, cells treated with the solvent (DMSO) and exposed to UVR (ultraviolet radiation) were considered as control samples. For each concentration tested, 3–8 independent biological samples were analyzed.

HaCaT cells [3] = test: Apoptosis/necrosis by Muse Annexin V & Dead Cell Kit (flow cytometry); format: cell-based, human; conditions: 48 h
Method: (§4) The Muse™ Annexin V & Dead Cell Kit (Cat. No. MCH100105, Millipore, Merck Darmstadt, Germany) was used to determine the percentage of HaCaT cells in four different cell populations (live, early apoptotic, late apoptotic, and dead) after treatment of cells with RSV, RF, CRC, and CF (5–100 μM; for 48 h) according to the manufacturer’s protocol. A detailed protocol was elucidated in Murati et al.. The cells were analyzed using the Muse™ Cell Analyzer (Luminex, Austin, TX, USA). For each concentration tested, 3–7 independent biological samples were analyzed.

HaCaT cells [4] = test: Cell proliferation/viability by Trypan Blue exclusion method; format: cell-based, human; conditions: 48 h; for antiproliferative activity compared to RSV or CRC-treated cells: 5–100 µM
Method: as §1, §2

HaCaT cells [5] = test: Intracellular ROS (DCFDA) induced by tert-butyl hydroperoxide; format: cell-based, human; conditions: then 50 µM tBHP; for doses with statistically significant (p < 0.05) lowering of ROS levels: HaCaT pretreated overnight; for effect on ROS induced by tBHP: HaCaT pretreated with 2.5–50 µM
Method: as §3

HaCaT cells [6] = test: Autophagy by Muse Autophagy LC3-antibody based kit (flow cytometry); format: cell-based, human; conditions: 48 h; for order of the autophagy induction ratio (from highest to lowest): 100 µM
Method: The Muse™ Autophagy LC3-antibody based kit (Cat. No. MCH200109, Millipore) was used to determine the induction of autophagy in HaCaT cells after treatment with RSV, RF, CRC, and CF (5–100 μM) with some minor protocol modifications. The experimental procedure for both analyses was set up as for cell viability determination by the Trypan blue method. Autophagy induction data were read based on the fluorescence intensity of the sample (using Muse™ Cell Analyzer). For each concentration tested, 3–8 independent biological samples were analyzed.

[7] = Apoptosis/necrosis by Muse Annexin V & Dead Cell Kit (flow cytometry); format: cell-based, human; conditions: human, HaCaT cells, highest concentration (100 µM), read-out: viability (live cells)
Method: as §4

DNA [8] = system: DNA; design: method as in PMID 21388716; conditions: cited from earlier work
DNA [9] = system: DNA; design: method as in PMID 21388716; conditions: cited from earlier work; remark: listed apart in the source
[10] = value outside the range of the tested doses (>100 µM)
[11] = HaCaT, Trypan Blue method, from dose–response curves
[12] = Homo sapiens, from dose–response curves
[13] = Homo sapiens, HaCaT, Trypan Blue method, from dose–response curves

In the case of `COc1cc(/C=C/C(=O)CC(=O)[c-]2cccc2)ccc1O.[Fe+2].c1cc[cH-]c1` [CF, (E)-5-(4-hydroxy-3-methoxyphenyl)-1-ferrocenylpent-4-ene-1,3-dione], the IC20 (HaCaT cells [1]; [10]) is reported as 121 µM, the IC50 (HaCaT cells [1]; [10]) is reported as 208 µM and the IC80 (HaCaT cells [1]; [10]) is reported as 273 µM. For the same compound, the “effect on UV-induced ROS” value (HaCaT cells [2]; HaCaT pretreated with 2.5–50 µM, UV-C 3 h) was “did not exhibit significant antioxidant activity”, the “effect on cell death / viability by flow cytometry” value (HaCaT cells [3]; 5–100 µM) was “induced cell death significantly less compared to all compounds tested; also recorded: almost no effect on cell viability” and the “antiproliferative activity compared to RSV or CRC-treated cells” value (HaCaT cells [4]; Trypan Blue) was “significantly lower antiproliferative activity”. The IC20 (HaCaT cells [4]; [11]) was 75.4 µM, the “doses with statistically significant (p < 0.05) lowering of ROS levels” value (HaCaT cells [5]) was ≥ 5 µM and the “effect on ROS induced by tBHP” value (HaCaT cells [5]) was “most pronounced effect; also recorded: significantly reduced the ROS induced by tBHP”. For the same compound, the “order of the autophagy induction ratio (from highest to lowest)” value (“order of the autophagy induction ratio” for short) (HaCaT cells [6]) was “CRC > CF > RF ≈ RSV” and the “effect on autophagy induction” value (HaCaT cells [6]; 5–100 µM) was “reduced autophagic degradation activity; also recorded: decrease in the autophagy induction ratio”.
In the case of `COc1cc(/C=C/C(=O)CC(=O)/C=C/c2ccc(O)c(OC)c2)ccc1O` [CRC, (1E,6E)-1,7-bis(4-hydroxy-3-methoxyphenyl)-1,6-heptadiene-3,5-dione], the “doses at which cell viability was almost completely impaired” value (HaCaT cells [1]; MTT) is reported as ≥ 50 µM, the “concentrations with statistically significant (p < 0.05) cytotoxicity” value (HaCaT cells [1]; MTT, vs solvent control) is reported as ≥ 20 µM and the IC20 (HaCaT cells [1]; [12]) is reported as 7.28 µM. The IC50 (HaCaT cells [1]; [12]) was 18.9 µM, the IC80 (HaCaT cells [1]; [12]) was 34 µM and the “doses with protective effect against UV-induced ROS” value (HaCaT cells [2]; HaCaT pretreated overnight, UV-C 3 h) was ≥ 20 µM. The “doses significantly (p < 0.05) reducing endogenous ROS production” value (HaCaT cells [2]; HaCaT, without UV exposure) was ≥ 20 µM, the viability at 48 h, 100 µM [7] was 1.08% and the “proportion of cells in early and late apoptosis” value (HaCaT cells [3]; 100 µM) was 88.40%. The “proportion of cells in late apoptosis” value (HaCaT cells [3]; highest concentration (100 µM)) was 88.34%, the “proportion of cells in necrosis” value (HaCaT cells [3]; highest concentration (100 µM)) was 10.52% and the “doses at which cell viability was almost completely impaired” value (HaCaT cells [4]; HaCaT, Trypan Blue) was ≥ 50 µM. The IC50 (HaCaT cells [4]; [13]) was 11 µM, the IC80 (HaCaT cells [4]; [13]) was 26.4 µM and the “doses with statistically significant (p < 0.05) lowering of ROS levels” value (HaCaT cells [5]) was ≥ 5 µM. For the same compound, the “effect on ROS induced by tBHP” value (HaCaT cells [5]) was “most pronounced effect”, the “effect on autophagy induction” value (HaCaT cells [6]; 100 µM (highest dose)) was “highest autophagy induction ratio; also recorded: most prominent autophagy induction ratio” and the “order of the autophagy induction ratio” value (HaCaT cells [6]) was “CRC > CF > RF ≈ RSV”.
For `COc1cc(C=CC(=O)C(=C[c-]2cccc2)C(=O)C=Cc2ccc(O)c(OC)c2)ccc1O.[Fe+2].c1cc[cH-]c1` [FCU, 1,7-bis(p-hydroxy-m-methoxyphenyl)-4-ferrocenylidene-hepta-1,6-diene-3,5-dione], the “inhibition of AAPH-induced oxidation of DNA” value (shortened to “inhibition”) (DNA [8]) is listed as “in higher extent than CRC, feruloylacetone, and dehydrozingerone” and the “effect on Cu2+/GSH-induced oxidation of DNA” value (from here on “effect … of DNA”) (DNA [9]) is listed as “protective effects”.
In the case of `COc1cc(C=CC(=O)C=C[c-]2cccc2)ccc1O.[Fe+2].c1cc[cH-]c1` [FDZ, 1-(p-hydroxy-m-methoxyphenyl)-5-ferrocenyl-penta-1,4-dien-3-one], the “inhibition” value (DNA [8]) is listed as “in higher extent than CRC, feruloylacetone, and dehydrozingerone” and the “effect … of DNA” value (DNA [9]) is listed as “protective effects”.
For `COc1cc(C=CC(O)=CC(=O)C=C[c-]2cccc2)ccc1O.[Fe+2].c1cc[cH-]c1` [FFT, 1-(p-hydroxy-m-methoxyphenyl)-3-hydroxy-7-ferrocenyl-hepta-1,4,6-trien-5-one], the “inhibition” value (DNA [8]) is listed as “in higher extent than CRC, feruloylacetone, and dehydrozingerone” and the “effect … of DNA” value (DNA [9]) is listed as “protective effects”.
In the case of `O=C(CCC[c-]1cccc1)Oc1ccc(/C=C/c2cc(OC(=O)CCC[c-]3cccc3)cc(OC(=O)CCC[c-]3cccc3)c2)cc1.[Fe+2].[Fe+2].[Fe+2].c1cc[cH-]c1.c1cc[cH-]c1.c1cc[cH-]c1` [RF, trans-3,5,4′-tri(4-ferrocenylbutanoyloxy)-stilbene], the “doses after which the majority of cells remained in the early apoptosis fraction” value (HaCaT cells [3]) is reported as ≥ 5 µM, the “antiproliferative activity compared to RSV or CRC-treated cells” value (HaCaT cells [4]; Trypan Blue) is reported as “significantly lower antiproliferative activity” and the IC20 (HaCaT cells [4]; [11]) is reported as 10.8 µM. The “effect on ROS induced by tBHP” value (HaCaT cells [5]) was “significantly reduced the ROS induced by tBHP”, the “effect on autophagy induction” value (HaCaT cells [6]; 5 µM) was “slightly induced autophagy” and the “effect on autophagy induction” value (HaCaT cells [6]; 100 µM (highest dose)) was “lower autophagy-related LC3 protein”. The “order of the autophagy induction ratio” value (HaCaT cells [6]) was “CRC > CF > RF ≈ RSV”.
With `Oc1ccc(/C=C/c2cc(O)cc(O)c2)cc1` [RSV, 3,4′,5-trihydroxy-trans-stilbene] the “level of cell death through necrotic or apoptotic pathways” value (HaCaT cells [3]; 100 µM) was ≤ 11%, the “cell survival (proportion of viable cells in the culture) vs control” value (HaCaT cells [3]; 100 µM, p < 0.05) was “significantly lower” and the IC20 (HaCaT cells [4]; [13]) was 3.22 µM. For the same compound, the IC50 (HaCaT cells [4]; [13]) was 40.3 µM, the “effect on autophagy induction” value (HaCaT cells [6]; 20 µM, p < 0.05) was “stimulating” and the “effect on autophagy induction” value (HaCaT cells [6]; 100 µM (highest dose)) was “reducing”. For the same compound, the “order of the autophagy induction ratio” value (HaCaT cells [6]) was “CRC > CF > RF ≈ RSV”.
